The values that follow come from patent US12465050B2, “Compositions comprising a pyridine carboxylate herbicide and protoporphyrinogen oxidase (protox) inhibitor herbicides” (priority 2018, dated 2025).

Format in all cases: in vivo
The subject of one assay is Avena fatua (wild oat). The assay can be described thus: Greenhouse postemergence herbicidal effect on AVEFA. The source says: (§1) Greenhouse Trial Methodology—Evaluation of Postemergence Herbicidal Effect
(§2) Seeds of the desired test plant species were planted in a 90:10% v/v (volume/volume) mixture of PRO-MIX® BX (Premier Tech Horticulture, Quakertown, Pa., USA) and PROFILE® GREENS GRADE™ (Profile Products LLC, Buffalo Grove, Ill., USA) planting mixture, which typically has a pH of 5.2 to 6.2 and an organic matter content of at least 50 percent, in plastic pots with a surface area of 103.2 square centimeters (cm^2). In some aspects or embodiments, to help ensure good germination and healthy plants, a fungicide treatment and/or other chemical or physical treatment was applied. The plants were grown for 7-36 days (d) in a greenhouse with an approximate 14-hour (h) photoperiod which was maintained at about 23° C. during the day and 22° C. during the night. Nutrients and water were added on a regular basis and supplemental lighting was provided with overhead metal halide 1000-Watt lamps as necessary. The plants were employed for testing when they reached the second or third true leaf stage.
(§3) Emulsifiable concentrates of each of each pyridine carboxylate herbicide (Compound A or Compound B) were prepared at 100 grams acid equivalent per liter (g ae/L). The emulsifiable concentrates also included a safener, cloquintocet mexyl, at 120 grams active ingredient per liter (g ai/L). […]
(§4) The treated plants and control plants were placed in a greenhouse as described above and watered by sub-irrigation to prevent wash-off of the test compounds. After 20-22 d, the condition of the test plants as compared with that of the control plants was determined visually and scored on a scale of 0 to 100 percent where 0 corresponds to no injury and 100 corresponds to complete kill.

Assay [1] deals with Lamium purpureum (purple deadnettle). Nature of the assay: Greenhouse postemergence herbicidal effect on LAMPU.
From the text: as §1, §2
(§5) Emulsifiable concentrates of each of each pyridine carboxylate herbicide (Compound A or Compound B) were prepared at 100 grams acid equivalent per liter (g ae/L). The emulsifiable concentrates also included a safener, cloquintocet mexyl, at 120 grams active ingredient per liter (g ai/L). An aliquot of each emulsifiable concentrate was placed in a 25 mL glass vial and diluted with an aqueous mixture of 1.25% (v/v) ACTIROB® B esterified rapeseed oil (Bayer Crop Science, Research Triangle Park, N.C., USA) or MSO® Concentrate with LECI-TECH® methylated soybean oil (Loveland Products, Loveland, Colo., USA) to obtain concentrated stock solutions at the highest application rate for each herbicide, based upon a 12 milliliter (mL) application volume at a rate of 187 liters per hectare (L/ha). The concentrated stock solutions were further diluted with an aqueous mixture of 1.25% v/v ACTIROB® B or MSO® Concentrate with LECI-TECH® to obtain stock solutions at reduced application rates for each herbicide. Spray solutions of the herbicide combinations (Compound A or Compound B plus PROTOX inhibitor herbicide) were prepared by adding weighed amounts or aliquots of the PROTOX inhibitor herbicides to the stock solutions of Compound A or Compound B to form 12-mL spray solutions in two-way combinations. […]
as §4

For assay [2], the system named is Stellaria media (chickweed). The assay can be described thus: Greenhouse postemergence herbicidal effect on STEME.
From the text: as §1, §2, §5, §4

The subject of assay [3] is Echinochloa crus-galli (barnyard grass). The assay can be described thus: Greenhouse postemergence herbicidal effect on ECHCG.
From the text: as §1, §2, §3, §4

In assay [4] the test system is Cirsium arvense (Canadian thistle). The assay can be described thus: Greenhouse postemergence herbicidal effect on CIRAR.
From the text: as §1, §2
Emulsifiable concentrates of each of each pyridine carboxylate herbicide (Compound A or Compound B) were prepared at 100 grams acid equivalent per liter (g ae/L). The emulsifiable concentrates also included a safener, cloquintocet mexyl, at 120 grams active ingredient per liter (g ai/L). An aliquot of each emulsifiable concentrate was placed in a 25 mL glass vial and diluted with an aqueous mixture of 1.25% (v/v) ACTIROB® B esterified rapeseed oil (Bayer Crop Science, Research Triangle Park, N.C., USA) or MSO® Concentrate with LECI-TECH® methylated soybean oil (Loveland Products, Loveland, Colo., USA) to obtain concentrated stock solutions at the highest application rate for each herbicide, based upon a 12 milliliter (mL) application volume at a rate of 187 liters per hectare (L/ha). The concentrated stock solutions were further diluted with an aqueous mixture of 1.25% v/v ACTIROB® B or MSO® Concentrate with LECI-TECH® to obtain stock solutions at reduced application rates for each herbicide. Spray solutions of the herbicide combinations (Compound A or Compound B plus PROTOX inhibitor herbicide) were prepared by adding weighed amounts or aliquots of the PROTOX inhibitor herbicides to the stock solutions of Compound A or Compound B to form 12-mL spray solutions in two-way combinations.
The spray solutions were applied to the plant material with an overhead Mandel track sprayer equipped with 8002E nozzles calibrated to deliver 187 L/ha over an application area of 0.503 square meters (m^2) at a spray height of 18 inches (43 centimeters (cm)) above the average plant canopy. Control plants were sprayed in the same manner with the solvent blank. All pyridine carboxylate herbicide (component a) application rates are given as “g ae/ha” and all PROTOX inhibitor herbicide (component b) application rates are given as “g ai/ha.”
as §4

In assay [5] the test system is Papaver rhoeas (common poppy). The assay can be described thus: Greenhouse postemergence herbicidal effect on PAPRH.
From the text: as §1, §2, §5, §4

Assay [6] concerns Abutilon theophrasti (velvetleaf). Nature of the assay: Greenhouse postemergence herbicidal effect on ABUTH.
From the text: as §1, §2, §3, §4

Where [7] appears, read: Compound A 7.5, Oxyfluorfen 0 g/ha.
Where [8] appears, read: Compound A 10, Oxyfluorfen 0 g/ha.
[9] abbreviates: Compound A 15, Oxyfluorfen 0 g/ha.

Molecules are shown by their SMILES.

As to `N#CCOC(=O)c1nc(-c2ccc3cc[nH]c3c2F)c(F)c(N)c1Cl` [Compound A, cyanomethyl 4-amino-3-chloro-5-fluoro-6-(7-fluoro-1H-indol-6-yl)pyridine-2-carboxylate], the “% visual injury, Obs” value with Avena fatua (wild oat) (Compound A 7.5, Bifenox 0 g/ha) came out at 0%; with Avena fatua (wild oat) (Compound A 10, Bifenox 0 g/ha) it was 0%; in assay [1] (setting [7]) it was 68%; in assay [1] (setting [8]) it was 73%; in assay [1] (setting [9]), 73%; in assay [2] (setting [7]), 85%. For the same compound, the “% visual injury, Obs” value in assay [2] (setting [8]) is listed as 88%; in assay [2] (setting [9]), 89%; in assay [3] (Compound A 7.5, Bifenox 0 g/ha), 80%; in assay [3] (Compound A 10, Bifenox 0 g/ha), 88%; in assay [4] (Compound A 7.5, Bifenox 0 g/ha) it was 70%; in assay [4] (setting [7]) it was 50%. The “% visual injury, Obs” value in assay [4] (Compound A 7.5, Pyraflufen-ethyl 0 g/ha) is given as 40%; in assay [4] (Compound A 10, Bifenox 0 g/ha), 68%; in assay [4] (setting [8]), 63%; in assay [4] (Compound A 10, Pyraflufen-ethyl 0 g/ha) it was 55%; in assay [4] (setting [9]) it was 63%; in assay [5] (setting [7]), 100%. The “% visual injury, Obs” value turned out to be 99% in assay [5] (setting [8]); 100% in assay [5] (setting [9]); 68% in assay [6] (Compound A 7.5, Saflufenacil 0 g/ha); 80% in assay [6] (Compound A 10, Saflufenacil 0 g/ha).
